# Experimental data: patent US20080090805A1, “CB-1 MODULATING COMPOUNDS AND THEIR USE” (ACADIA PHARMACEUTICALS INC., priority 2005, published 2008)
# Biological target: CB1 (mutant) (Homo sapiens, UniProt P21554)
# Test: R-SAT functional receptor assay, CB1 (mutant, truncated after amino acid 417)
# Assay type: cell-based
# Conditions: Appendix A; R-SAT CB1; receptor form (mutant or wild-type) not stated
# Chain of CB1 (mutant) (P21554 1-417, change not shown): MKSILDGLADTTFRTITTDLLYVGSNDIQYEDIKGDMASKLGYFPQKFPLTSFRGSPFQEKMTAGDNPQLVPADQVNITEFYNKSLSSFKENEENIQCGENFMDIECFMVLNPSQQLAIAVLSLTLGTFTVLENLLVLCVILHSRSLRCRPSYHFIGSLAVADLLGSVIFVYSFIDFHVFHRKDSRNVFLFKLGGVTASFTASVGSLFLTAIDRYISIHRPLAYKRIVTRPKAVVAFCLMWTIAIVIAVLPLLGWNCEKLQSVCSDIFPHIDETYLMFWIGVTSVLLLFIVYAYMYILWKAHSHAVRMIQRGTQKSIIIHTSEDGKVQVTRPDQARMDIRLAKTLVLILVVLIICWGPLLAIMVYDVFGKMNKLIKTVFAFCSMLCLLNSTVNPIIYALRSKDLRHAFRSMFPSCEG
row,pIC50,Structure (SMILES)
1,1.0,CCCCN(C)C(=O)c1ccc2c(c1)N=C(c1ncccc1C)c1ccccc1S2

# Same assay, conditions: Appendix A; R-SAT CB1; receptor form (mutant or wild-type) not stated; read-out: pIC50 (converted)
row,IC50,Structure (SMILES)
1,20 nM,C[C@@H]1CCC[C@H](C)N1NC(=O)c1ccc2c(c1)N=C(c1ccc(F)cc1)c1ccccc1S2 [drawing 943]
2,7.94 nM,CCCC1=Nc2cc(C(=O)NCC(C)c3ccccc3)ccc2Sc2ccccc21 (stereo not shown) [drawing 735]
3,31.6 nM,CCOC(=O)N1CCC(NC(=O)c2ccc3c(c2)N=C(c2ccc(Cl)cc2)c2ccccc2S3)CC1 [drawing 1101]
4,39.8 nM,CCCNC(=O)c1ccc2c(c1)N=C(c1ccccc1F)c1ccccc1S2
5,1580 nM,NS(=O)(=O)c1ccc(CNC(=O)c2ccc3c(c2)N=C(NCc2ccc(Cl)cc2)c2ccccc2S3)cc1
6,398 nM,CCOC(=O)N1CCC(NC(=O)c2ccc3c(c2)N=C(CC(C)C)c2ccccc2S3)CC1
7,25.1 nM,CC(C)CNC(=O)c1ccc2c(c1)N=C(c1ccc(Cl)s1)c1ccc(Cl)cc1S2 [drawing 983]
8,63.1 nM,O=C(NC1CCCC1)c1ccc2c(c1)N=C(c1ccc(Cl)c(Cl)c1)c1ccccc1S2 [drawing 672]
9,7.94 nM,CCCCNC(=O)c1ccc2c(c1)N=C(c1cccc(F)c1)c1ccccc1S2 [drawing 719]
10,2 nM,O=C(NCCCC(F)(F)F)c1ccc2c(c1)N=C(c1ccsc1)c1ccccc1S2 [drawing 555]
11,79.4 nM,O=C(NN1CCCC1)c1ccc2c(c1)N=C(c1ccc(Cl)cc1)c1ccccc1S2 [drawing 698]
12,12.6 nM,O=C(NN1CCCCC1)c1ccc2c(c1)N=C(c1ccc(F)c(Cl)c1)c1ccccc1S2 [drawing 817]
13,501 nM,CCOC(=O)c1ccc(C2=Nc3cc(C(=O)NCc4ccncc4)ccc3Sc3ccccc32)cc1
14,3.16 nM,O=C(NCc1cccs1)c1ccc2c(c1)N=C(c1cccc(F)c1)c1ccccc1S2 [drawing 595]
15,39.8 nM,CCCCNC(=O)c1ccc2c(c1)N=C(c1ccc(Cl)cc1Cl)c1ccccc1S2 [drawing 1165]
16,25.1 nM,O=C(NCCc1cccc(Cl)c1)c1ccc2c(c1)N=C(C1CCCCC1)c1ccccc1S2 [drawing 1001]
17,25.1 nM,O=C(NN1CCCCCC1)c1ccc2c(c1)N=C(c1ccc(F)cc1)c1ccccc1S2 [drawing 1009]
18,50.1 nM,CCOCCNC(=O)c1ccc2c(c1)N=C(c1ccc(F)cc1)c1ccccc1S2 [drawing 596]
19,3.98 nM,O=C(NCCCc1ccccc1)c1ccc2c(c1)N=C(c1ccccc1)c1ccccc1S2 [drawing 617]
20,316 nM,CCCC1=Nc2cc(C(=O)NCCCN3CCOCC3)ccc2Sc2ccccc21
21,25.1 nM,O=C(NN1CCCCC1)c1ccc2c(c1)N=C(c1ccc(Br)cc1)c1ccccc1S2 [drawing 993]
22,316 nM,CCCC1=Nc2cc(C(=O)NCCCN3CCC(c4cc(Cl)ccc4C)CC3)ccc2Sc2ccccc21

row,IC50,Structure (SMILES)
1,251 nM,O=C(NNCc1ccccc1)c1ccc2c(c1)N=C(c1cccc(Br)c1)c1ccccc1S2 [drawing 928]
2,2.51 nM,O=C(NCc1cccs1)c1ccc2c(c1)N=C(c1ccc(F)cc1)c1ccccc1S2 [drawing 571]
3,39.8 nM,O=C(NCCc1ccncc1)c1ccc2c(c1)N=C(c1ccc(Cl)cc1)c1ccccc1S2 [drawing 1135]
4,50.1 nM,O=C(NCCc1ccccn1)c1ccc2c(c1)N=C(c1cccc(F)c1)c1ccccc1S2
5,100 nM,CCOCCNC(=O)c1ccc2c(c1)N=C(c1ccc(C#N)cc1)c1ccccc1S2 [drawing 788]
6,31.6 nM,O=C(NCc1ccco1)c1ccc2c(c1)N=C(c1ccccn1)c1ccccc1S2
7,100 nM,COc1ccc(C2=Nc3cc(C(=O)NC(C)C)ccc3Sc3ccccc32)cc1 [drawing 780]
8,794 nM,O=C(NCc1ccncc1)c1ccc2c(c1)N=C(NCc1ccc(Cl)cc1)c1ccccc1S2
9,251 nM,CCCC1=NC2=C(CCC(C(=O)N3CCN(c4ccccc4F)CC3)=C2)Sc2ccccc21
10,5.01 nM,CCCCNC(=O)c1ccc2c(c1)N=C(c1ccc(Cl)s1)c1ccccc1S2 [drawing 633]
11,39.8 nM,CCCCNC(=O)c1ccc2c(c1)N=C(c1ccc(Cl)s1)c1ccc(Cl)cc1S2 [drawing 1109]
12,12.6 nM,O=C(NC1CCCCC1)c1ccc2c(c1)N=C(c1cccc(Cl)c1)c1ccccc1S2 [drawing 843]
13,50.1 nM,CCCCNC(=O)c1cc2c(cc1O)Sc1ccccc1C(c1ccc(Cl)cc1)=N2 [drawing 552]
14,251 nM,CCCC1=Nc2cc(C(=O)N3CCN(c4ccc(F)cc4)CC3)ccc2Sc2ccccc21
15,501 nM,CCCCNC(=O)c1ccc2c(c1)N=C(c1ccc(Cl)s1)c1ccc(F)cc1S2 [drawing 1010]
16,6.31 nM,Cc1csc(CNC(=O)c2ccc3c(c2)N=C(c2ccc(Cl)s2)c2ccccc2S3)c1 [drawing 655]
17,158 nM,COc1ccc(C2=Nc3cc(C(=O)NCc4ccc(S(N)(=O)=O)cc4)ccc3Sc3ccccc32)cc1
18,794 nM,CCOCCNC(=O)c1ccc2c(c1)N=C(N1CCCCC1)c1ccccc1S2
19,501 nM,CCCC1=Nc2cc(C(=O)NC)ccc2Sc2ccccc21
20,63.1 nM,Cc1ccsc1C1=Nc2cc(C(=O)NC(C)C)ccc2Sc2ccccc21 [drawing 684]
21,794 nM,COCCNC(=O)c1ccc2c(c1)N=C(c1ccccc1Cl)c1ccccc1S2
22,10 nM,Cc1ccsc1C1=Nc2cc(C(=O)NCC(C)C)ccc2Sc2ccccc21 [drawing 757]

row,Structure (SMILES),IC50
1,CCCCCC1=Nc2cc(C(=O)N3CCN(c4ccc(C)cc4C)CC3)ccc2Sc2ccccc21,200 nM
2,CCCCNC(=O)c1ccc2c(c1)N=C(C#C[Si](C)(C)C)c1ccccc1S2,631 nM

# Same assay, conditions: Appendix A; R-SAT CB1; receptor form not stated; relative to SR141716 (100%); read-out: % Inhibition
row,Emax,Structure (SMILES)
1,115%,C[C@@H]1CCC[C@H](C)N1NC(=O)c1ccc2c(c1)N=C(c1ccc(F)cc1)c1ccccc1S2 [drawing 943]
2,104%,CCCC1=Nc2cc(C(=O)NCC(C)c3ccccc3)ccc2Sc2ccccc21 (stereo not shown) [drawing 735]
3,109%,CCOC(=O)N1CCC(NC(=O)c2ccc3c(c2)N=C(c2ccc(Cl)cc2)c2ccccc2S3)CC1 [drawing 1101]
4,97%,CCCNC(=O)c1ccc2c(c1)N=C(c1ccccc1F)c1ccccc1S2
5,41%,NS(=O)(=O)c1ccc(CNC(=O)c2ccc3c(c2)N=C(NCc2ccc(Cl)cc2)c2ccccc2S3)cc1
6,89%,CCOC(=O)N1CCC(NC(=O)c2ccc3c(c2)N=C(CC(C)C)c2ccccc2S3)CC1
7,110%,CC(C)CNC(=O)c1ccc2c(c1)N=C(c1ccc(Cl)s1)c1ccc(Cl)cc1S2 [drawing 983]
8,95%,O=C(NC1CCCC1)c1ccc2c(c1)N=C(c1ccc(Cl)c(Cl)c1)c1ccccc1S2 [drawing 672]
9,113%,CCCCNC(=O)c1ccc2c(c1)N=C(c1cccc(F)c1)c1ccccc1S2 [drawing 719]
10,90%,O=C(NCCCC(F)(F)F)c1ccc2c(c1)N=C(c1ccsc1)c1ccccc1S2 [drawing 555]
11,100%,O=C(NN1CCCC1)c1ccc2c(c1)N=C(c1ccc(Cl)cc1)c1ccccc1S2 [drawing 698]
12,14%,CCCCN(C)C(=O)c1ccc2c(c1)N=C(c1ncccc1C)c1ccccc1S2
13,108%,O=C(NN1CCCCC1)c1ccc2c(c1)N=C(c1ccc(F)c(Cl)c1)c1ccccc1S2 [drawing 817]
14,69%,CCOC(=O)c1ccc(C2=Nc3cc(C(=O)NCc4ccncc4)ccc3Sc3ccccc32)cc1
15,100%,O=C(NCc1cccs1)c1ccc2c(c1)N=C(c1cccc(F)c1)c1ccccc1S2 [drawing 595]
16,98%,CCCCNC(=O)c1ccc2c(c1)N=C(c1ccc(Cl)cc1Cl)c1ccccc1S2 [drawing 1165]
17,102%,O=C(NCCc1cccc(Cl)c1)c1ccc2c(c1)N=C(C1CCCCC1)c1ccccc1S2 [drawing 1001]
18,92%,O=C(NN1CCCCCC1)c1ccc2c(c1)N=C(c1ccc(F)cc1)c1ccccc1S2 [drawing 1009]
19,94%,CCOCCNC(=O)c1ccc2c(c1)N=C(c1ccc(F)cc1)c1ccccc1S2 [drawing 596]
20,111%,O=C(NCCCc1ccccc1)c1ccc2c(c1)N=C(c1ccccc1)c1ccccc1S2 [drawing 617]
21,98%,CCCC1=Nc2cc(C(=O)NCCCN3CCOCC3)ccc2Sc2ccccc21
22,92%,O=C(NN1CCCCC1)c1ccc2c(c1)N=C(c1ccc(Br)cc1)c1ccccc1S2 [drawing 993]
23,117%,CCCC1=Nc2cc(C(=O)NCCCN3CCC(c4cc(Cl)ccc4C)CC3)ccc2Sc2ccccc21

row,Emax,Structure (SMILES)
1,86%,O=C(NNCc1ccccc1)c1ccc2c(c1)N=C(c1cccc(Br)c1)c1ccccc1S2 [drawing 928]
2,97%,O=C(NCc1cccs1)c1ccc2c(c1)N=C(c1ccc(F)cc1)c1ccccc1S2 [drawing 571]
3,116%,O=C(NCCc1ccncc1)c1ccc2c(c1)N=C(c1ccc(Cl)cc1)c1ccccc1S2 [drawing 1135]
4,91%,O=C(NCCc1ccccn1)c1ccc2c(c1)N=C(c1cccc(F)c1)c1ccccc1S2
5,74%,CCOCCNC(=O)c1ccc2c(c1)N=C(c1ccc(C#N)cc1)c1ccccc1S2 [drawing 788]
6,102%,O=C(NCc1ccco1)c1ccc2c(c1)N=C(c1ccccn1)c1ccccc1S2
7,84%,COc1ccc(C2=Nc3cc(C(=O)NC(C)C)ccc3Sc3ccccc32)cc1 [drawing 780]
8,56%,O=C(NCc1ccncc1)c1ccc2c(c1)N=C(NCc1ccc(Cl)cc1)c1ccccc1S2
9,97%,CCCC1=NC2=C(CCC(C(=O)N3CCN(c4ccccc4F)CC3)=C2)Sc2ccccc21
10,92%,CCCCNC(=O)c1ccc2c(c1)N=C(c1ccc(Cl)s1)c1ccccc1S2 [drawing 633]
11,104%,CCCCNC(=O)c1ccc2c(c1)N=C(c1ccc(Cl)s1)c1ccc(Cl)cc1S2 [drawing 1109]
12,99%,O=C(NC1CCCCC1)c1ccc2c(c1)N=C(c1cccc(Cl)c1)c1ccccc1S2 [drawing 843]
13,95%,CCCCNC(=O)c1cc2c(cc1O)Sc1ccccc1C(c1ccc(Cl)cc1)=N2 [drawing 552]
14,108%,CCCC1=Nc2cc(C(=O)N3CCN(c4ccc(F)cc4)CC3)ccc2Sc2ccccc21
15,101%,CCCCNC(=O)c1ccc2c(c1)N=C(c1ccc(Cl)s1)c1ccc(F)cc1S2 [drawing 1010]
16,94%,Cc1csc(CNC(=O)c2ccc3c(c2)N=C(c2ccc(Cl)s2)c2ccccc2S3)c1 [drawing 655]
17,84%,COc1ccc(C2=Nc3cc(C(=O)NCc4ccc(S(N)(=O)=O)cc4)ccc3Sc3ccccc32)cc1
18,103%,CCOCCNC(=O)c1ccc2c(c1)N=C(N1CCCCC1)c1ccccc1S2
19,119%,CCCC1=Nc2cc(C(=O)NC)ccc2Sc2ccccc21
20,83%,COc1ccc(C2=Nc3cc(C(=O)NNC(=O)c4ccccc4)ccc3Sc3ccccc32)cc1 [drawing 798]
21,95%,Cc1ccsc1C1=Nc2cc(C(=O)NC(C)C)ccc2Sc2ccccc21 [drawing 684]
22,62%,COCCNC(=O)c1ccc2c(c1)N=C(c1ccccc1Cl)c1ccccc1S2
23,88%,Cc1ccsc1C1=Nc2cc(C(=O)NCC(C)C)ccc2Sc2ccccc21 [drawing 757]

row,Structure (SMILES),Emax
1,CCCCCC1=Nc2cc(C(=O)N3CCN(c4ccc(C)cc4C)CC3)ccc2Sc2ccccc21,107%
2,CC(CNC(=O)c1ccc2c(c1)N=C(c1ccc(F)cc1)c1ccccc1S2)c1ccccc1 (stereo not shown) [drawing 639],98%
3,Cc1ccc(CNC(=O)c2ccc3c(c2)N=C(c2ccc(Cl)cc2)c2ccccc2S3)o1 [drawing 1141],93%
4,CCN(CCNC(=O)c1ccc2c(c1)N=C(c1cccc(Cl)c1)c1ccccc1S2)c1ccccc1 [drawing 713],97%
5,CCCCNC(=O)c1ccc2c(c1)N=C(C#C[Si](C)(C)C)c1ccccc1S2,64%
6,CCCC1=Nc2cc(C(=O)NC3CCCC(C)C3C)ccc2Sc2ccccc21 (stereo not shown) [drawing 1115],101%

# Same assay, conditions: pIC50, Appendix A; R-SAT CB1; receptor form (mutant or wild-type) not stated
row,Structure (SMILES),IC50
1,CC(CNC(=O)c1ccc2c(c1)N=C(c1ccc(F)cc1)c1ccccc1S2)c1ccccc1 (stereo not shown) [drawing 639],5.01 nM
2,Cc1ccc(CNC(=O)c2ccc3c(c2)N=C(c2ccc(Cl)cc2)c2ccccc2S3)o1 [drawing 1141],39.8 nM
3,CCN(CCNC(=O)c1ccc2c(c1)N=C(c1cccc(Cl)c1)c1ccccc1S2)c1ccccc1 [drawing 713],7.94 nM
4,CCCC1=Nc2cc(C(=O)NC3CCCC(C)C3C)ccc2Sc2ccccc21 (stereo not shown) [drawing 1115],39.8 nM
